According to patent publication US20210340178A1, “NONAPEPTIDE PREVENTING INCREASED HYPERPERMEABILITY OF VASCULAR ENDOTHELIUM” (FEDERALNOYE GOSUDARSTVENNOE BUDGETNOE UCHREZHDENIE …, priority 2018, published 2021):
“Also recorded” adds a separate entry of the source. Like-named read-outs stand apart in the source and are kept apart here. Non-standard residues stand in square brackets, D forms with d. Residues, ends and D or L forms follow the SMILES beside them. NMeR = CN[C@@H](CCCNC(=N)N)C(=O)O

Assays:
[1] = molecular target: smooth-muscle myosin light-chain kinase; settings: Hunt et al., 1989; cited from earlier work
[2] = Peptide half-lives in human plasma in vitro (1H-NMR spectroscopy); format: in vitro ADME; settings: human, plasma, 1H-NMR, 37° C., peptide 3 mg/ml; read-out: T1/2, half-life in human plasma in vitro
Procedure: Whole blood (100 mL) was collected from healthy donors to 50-mL tubes containing 5 mL of a preservative (130 mM citrate in phosphate buffered saline (PBS), pH 7.4). The blood was incubated for 15-20 min at room temperature followed by centrifugation at 1500 g for 15 min at 18° C. The supernatants were transferred to clear tubes and centrifuged as above. Dry NaBr was added to the plasma (280 mg per 1 mL of plasma). After dissolution of NaBr, the plasma (approx. 30 mL) was transferred to centrifuge tubes (Type 45Ti rotor, Beckman, USA) and layered with 20 mL of a solution (specific mass of […]), which was prepared as follows—11.42 g of NaCl and 100 mg of ethylenediaminetetraacetic acid (EDTA) were dissolved in distilled water in a final volume of 1 L (pH 7.4) and 281.44 g of NaBr was added. The plasma was centrifuged at 40,000 rpm for 48 hrs. The upper dark-yellow fraction containing lipoproteins and the colorless buffer fraction were discarded leaving approx. 1-cm high buffer above the apparent plasma border. Portions of plasma obtained from one donor were pooled and dialyzed for 36 hrs against 4 L of PSB free of Ca^2+ and Mg^2+(MP Biomedicals, USA) in dialysis bags with 12-14 kDa pore sizes. The dialysis procedure was repeated twice with fresh buffer changed every 24 hrs. After the dialysis, the plasma was centrifuged at 25,000 rpm (Type 45Ti rotor, Beckman, USA) for 15 min at 4° C. The supernatant fraction was collected and lyophilized. The dry matter was dissolved in D2O in a final volume equal to the plasma volume before NaBr was added, lyophilized again, dissolved in the same volume of D2O, and stored in 1-mL aliquots at −20° C. before use.
^1H-NMR spectroscopy was employed to analyze relative degradation of PIK7 (the claimed peptide) and MLC11-19 (the structural analogue) in human plasma. ^1H-NMR spectroscopy allows simultaneous direct monitoring the amounts of original full-length peptide and its fragments during the course of enzymatic hydrolysis (Isakova et al., 1986). Stability of a peptide, its degradation pathway(s) and a half-life estimate are available from a comparison of spectra obtained at different time points after the addition of a peptide to plasma. ^1H-NMR spectra were obtained using a WM-500 spectrometer (Bruker, Germany) at 37° C. Chemical shifts in ^1H-NMR spectra were measured relative to an internal standard (2,2-dimethyl-2-silapentane-5-sulfonate sodium salt). The signals were referenced by the double-resonance method. The resonances from peptide protons were identified by the differential spectroscopy method, i.e. the spectrum of blood plasma was subtracted from each spectrum obtained in the presence of peptide of interest. Peptide concentrations were 3 mg/ml.
These indicate the peptide N-terminus degradation. […] Therefore, the claimed peptide has an increased life-span in plasma that allows for long-lasting maintenance of its effective concentrations necessary to decrease the endothelial hyperpermeability under emergency conditions. Moreover, an increased life-time allows attaining the desired therapeutic effect with lower (as compared to homologues) peptide concentrations.

[3] = system: EA.hy926 endothelial cell monolayer; assay: Thrombin-mediated FITC-dextran permeability through endothelial cell monolayer; format: cell-based; settings: peptide 100 μM, 60 min preincubation; thrombin 100 nM; 70 kDa FITC-dextran
Procedure: FIG. 3. The thrombin-mediated FITC-dextran permeability through the EA.hy926 endothelial cell monolayer in the presence of myosin light chain kinase peptide inhibitors. Thrombin (100 nM) was added at 0 min, the cells were preincubated for 60 min with MLCK peptide inhibitors (100 μM). Data are presented as mean±SD, n=5. p<0.05 for all data points within the 20-180 min time course range as compared to the thrombin-stimulated control.
Effects of the claimed peptide (PIK7), the prototype (PIK2), and the analogue (MLC11-19) on the endothelial permeability was assayed in a model of FITC-dextran diffusion through the endothelial monolayer as described in Example 3.
Cells were grown in 24-well plates (Greiner Bio-one, Austria) equipped with special inserts to form inner (upper) chambers with a porous bottom (the pore diameter of 0.4 μm, pore density of 10^8/cm^2) in DMEM until monolayer was formed (3-4 days). Successful monolayer was checked by measuring FITC-dextran diffusion for 1 hour through inserts with cell monolayers vs inserts without cells (‘blank’ inserts). Experiments were performed in triplicates when tight monolayers were formed. On the day of experiment, the cells were deprived for 1 h in DMEM supplemented with MLCK inhibitors or without inhibitors (control). After deprivation, FITC-dextran was added to the upper compartment to a final concentration of 0.05 mg/ml. In 30 and 60 min, a 10-μ1 aliquot was withdrawn from the lower compartment and mixed with 100 μl phosphate buffered saline pH 7.3 in a 96-well plate to estimate the endothelial monolayer baseline permeability. […] During the next 3 hrs, every 30 min, aliquots were taken from the lower compartment, and intensity of FITC fluorescence was measured using a Victor 3X plate reader (Perkin Elmer, USA) to plot the dynamics of the FITC fluorescence changes.
As shown, 100 nM thrombin induces the endothelial hyperpermeability response as reflected by an increase in 70 kDa FITC-dextran diffusion through the endothelial monolayer and an incremental increase in the fluorescence in the lower compartment of the diffusion chamber. […]

[4] = system: MLC phosphorylation in neutrophils; settings: Chilcoat et al., 2008; cited from earlier work
[5] = cited from earlier work
BALB/c mice = assay: Acute toxicity in mice, single injection; format: in vivo
Procedure: (§1) The study was conducted in 82 BALB/c mice (both males and females, body weight 18-24 g) obtained from the animal facility of the Scientific Center for Biomedical Technologies of the Federal Medico-Biological Agency of the Russian Federation (SCBMT). The animals were certified and otherwise healthy. The animals were kept in T-3 cages (5-10 animals per cage) with artificial 12 hrs light-dark cycles and 16× per hour forced air ventilation, temperature of 20-22° C. and 50-65% humidity on wood chips sterilized by hot air. The animals had free access to drinking water and PK-120-1 mouse cubes (GOST P50258-92; Laboratorsnab LLC, Russia).
(§2) PIK2 and PIK7 peptides were dissolved in water and administered to mice as a single intraperitoneal injection. The animals were followed for 14 days after peptide injections. An increasing dosage scheme was applied where each tested dose surpassed the previous dose by 50%. The lowest dose of the active substance was determined that caused animal death.

[6] = Acute toxicity in mice, single injection; format: in vivo; settings: mouse, in vivo
Procedure: as §1, §2

[7] = system: endothelial hyperpermeability; settings: cited from earlier work
Chinchilla rabbits = assay: Tolerance of a single intravenous injection in Chinchilla rabbits; settings: i.v. 5 mg/kg
Procedure: (§3) PIK2 dose of 5 mg/kg was calculated individually for each rabbit and administered into marginal ear vein in a final volume of 1.7-1.9 mL in sterile physiological saline. Stock concentration of the tested substance was 10 mg/mL.
(§4) During the 24-hrs testing period, the overall health status and behavior were monitored (appetite, motion activity, hair coat condition).
(§5) Before injection of test substances (baseline) and 4 hrs and 24 hrs after the injection, the following parameters were tested in whole venous blood samples (3.0-3.5 mL) collected from a marginal ear vein red blood cell (RBC) count, hematocrit, hemoglobin level, mean RBC volume, mean corpuscular hemoglobin, total leukocyte, lymphocyte, and granulocyte counts and their percentages, platelet count, and mean platelet volume. In parallel, the following biochemical parameters were measured in serum total protein, bilirubin, urea, creatinine, glucose, total cholesterol, triglycerides, and activities of alkaline phosphatase, lactate dehydrogenase, aspartate aminotransferase, and alanine aminotransferase. Blood cell count was performed using an Abacus junior vet (Austria) hematological cell counter; biochemical studies were performed using a Targa-2000 (Italy) instrument.

in vivo = settings: male, Chinchilla, rabbit, 5 mg/kg
Procedure: as §3, §4, §5

lung edema in rats = settings: cited from earlier work
[8] = rabbit, in vivo, iv
Procedure: as §3, §4, §5

MLCK = MLCK (Homo sapiens, UniProt Q15746); settings: in vitro; Sekridova et al., 2010 / RU 2402565; cited from earlier work

## H-D-Lys-Lys-Arg-Ala-Ala-Arg-NH2 (H-[dK]KRAAR-NH2; SMILES C[C@H](NC(=O)[C@H](C)NC(=O)[C@H](CCCNC(=N)N)NC(=O)[C@H](CCCCN)NC(=O)[C@H](N)CCCCN)C(=O)N[C@@H](CCCNC(=N)N)C(N)=O) [RLC 11-16 hexapeptide with N-terminal L-Lys substituted with D-Lys]
[1]
  IC50: 180 µM

## H-KKRAARATS-NH2 [MLC11-19, H-Lys-Lys-Arg-Ala-Ala-Arg-Ala-Thr-Ser-NH2]
[2]
  half-life: 32 min
[3]
  effect on thrombin-induced FITC-dextran hyperpermeability: completely abolished the FITC-dextran hyperpermeability; also recorded: effectively abolished FITC-dextran hyperpermeability
[4]
  effect on MLC phosphorylation in neutrophils: decreases MLC phosphorylation in neutrophils

## CN[C@@H](CCCNC(=N)N)C(=O)N[C@@H](CCCCN)C(=O)N[C@@H](CCCCN)C(=O)N[C@@H](Cc1ccc(O)cc1)C(=O)N[C@@H](CCCCN)C(=O)N[C@@H](Cc1ccc(O)cc1)C(=O)N[C@@H](CCCNC(=N)N)C(=O)N[C@H](CCCNC(=N)N)C(=O)N[C@@H](CCCCN)C(N)=O [PIK2, H—(N—Me)-Arg^1-Lys-Lys-Tyr-Lys-Tyr-Arg^7-D-Arg^8-Lys-NH2] (H-[NMeR]KKYKYR[dR]K-NH2)
[5]; Khapchaev et al., 2016
  T1/2, half-life in human plasma in vitro: >540 min
[5]; RU 2493164
  stability, fold higher as compared to PIK1: 4 fold
BALB/c mice; BALB/c mice, single intraperitoneal injection, followed 14 days
  lowest dose of the active substance that caused animal death: 27 mg/kg
BALB/c mice; mice, single intraperitoneal injection of a toxic dose
  signs after a toxic dose: movement retardation and death within the following 24 hrs
[6]; both sexes, BALB/c, intraperitoneal, mice, Table 3
  LD50 at 14 days: 18 mg/kg
[6]; after single intravenous injection (as printed in b7), read-out: LD50 in mice
  LD50: 18 mg/kg
[7]; peptide 20 μM
  effect on thrombin-mediated endothelial hyperpermeability in vitro: completely abolished the thrombin-mediated endothelial hyperpermeability
Chinchilla rabbits; group of 4
  mortality: two rabbits died on the 7th and 10th minute
Chinchilla rabbits; second minute after injection
  clinical signs after injection: irregular breathing, shortness of breath, muscular stiffness, prone position with straighten extremities
In vivo
  LD50 at 24 h: 5 mg/kg
[3]
  effect on thrombin-induced FITC-dextran hyperpermeability: completely abolished the FITC-dextran hyperpermeability; also recorded: effectively abolished FITC-dextran hyperpermeability
Lung edema in rats
  effect on endothelial hyperpermeability response and lung edema: abrogation of the endothelial hyperpermeability response and lung edema in rats
[8]
  LD50: ≤ 5 mg/kg

## H-L-Lys-Lys-Arg-Ala-Ala-Arg-NH2 (H-KKRAAR-NH2)
[1]
  IC50: 22 µM

## H-MeArg^1-Lys-Lys-Tyr-Lys-Tyr-Arg-Arg-Lys-NH2 (H-[NMeR]KKYKYRRK-NH2) [PIK1, L-PIK modified at the N-terminal amino acid]
[5]; RU 2402565
  half-life in human plasma in vitro, fold higher as compared to L-PIK: ~3 fold
[7]; peptide 100 μM
  inhibition of thrombin-mediated endothelial hyperpermeability: 1.6 fold
MLCK
  inhibitory activity compared to L-PIK: comparable to that of L-PIK
